Laboratory results: ChEMBL document CHEMBL1201862, “PubChem BioAssay data set” (2004)
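Five compound concentrations were applied to cells in 96-well plates for 48 hours; endpoints were derived by simple linear interpolation of the resulting dose-response curve. At the GI50, growth is halved.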 Activity calls are given as the source filed them. Cut-off read from the data, not from the text of the source: active = GI50 up to about 1.1 µM and inactive = higher.

What was measured:
Assay in all cases: NCI anticancer screen, dose series, 48 h
786-0 = test system: 786-0
A498 = test system: A498
A549 = test system: A549
ACHN = test system: ACHN
CAKI-1 = test system: CAKI-1
CCRF-CEM = test system: CCRF-CEM
DU-145 = test system: DU-145
EKVX = test system: EKVX
HCC 2998 = test system: HCC 2998
HCT-116 = test system: HCT-116
HCT-15 = test system: HCT-15
HL-60 = test system: HL-60
HOP-62 = test system: HOP-62
HOP-92 = test system: HOP-92
HT-29 = test system: HT-29
Hs-578T = test system: Hs-578T
IGROV-1 = test system: IGROV-1
K562 = test system: K562
LOX IMVI = test system: LOX IMVI
M14 = test system: M14
MCF7 = test system: MCF7
MDA-MB-231 = test system: MDA-MB-231
MDA-MB-435 = test system: MDA-MB-435
MDA-N = test system: MDA-N
MOLT-4 = test system: MOLT-4
Malme-3M = test system: Malme-3M
NCI-H23 = test system: NCI-H23
NCI-H460 = test system: NCI-H460
NCI-H522 = test system: NCI-H522
NCI/ADR-RES = test system: NCI/ADR-RES
OVCAR-3 = test system: OVCAR-3
OVCAR-4 = test system: OVCAR-4
OVCAR-5 = test system: OVCAR-5
OVCAR-8 = test system: OVCAR-8
PC-3 = test system: PC-3
RPMI-8226 = test system: RPMI-8226
RXF 393 = test system: RXF 393
SF-268 = test system: SF-268
SF-295 = test system: SF-295
SF-539 = test system: SF-539
SK-MEL-28 = test system: SK-MEL-28
SK-MEL-2 = test system: SK-MEL-2
SK-MEL-5 = test system: SK-MEL-5
SK-OV-3 = test system: SK-OV-3
SNB-19 = test system: SNB-19
SNB-75 = test system: SNB-75
SR = test system: SR
SW-620 = test system: SW-620
T47D = test system: T47D
TK-10 = test system: TK-10
U-251 = test system: U-251
UACC-257 = test system: UACC-257
UO-31 = test system: UO-31
BT-549 = test system: BT-549
COLO 205 = test system: COLO 205
KM12 = test system: KM12
NCI-H226 = test system: NCI-H226
UACC-62 = test system: UACC-62

Measured: GI50

Cc1ccc2c(c1)CC1(Cc3cc(C)ccc3C1=O)C2=O
inactive: 786-0 > 100 µM | A498 > 100 µM | A549 > 100 µM | ACHN > 100 µM | CAKI-1 > 100 µM | CCRF-CEM > 100 µM | DU-145 > 100 µM | EKVX > 100 µM | HCC 2998 > 100 µM | HCT-116 > 100 µM | HL-60 > 100 µM | HOP-62 > 100 µM | HOP-92 > 100 µM | HT-29 > 100 µM | Hs-578T > 100 µM | IGROV-1 > 100 µM | K562 > 100 µM | LOX IMVI > 100 µM | M14 > 100 µM | MCF7 > 100 µM | MDA-MB-231 > 100 µM | MDA-MB-435 > 100 µM | MDA-N > 100 µM | MOLT-4 > 100 µM | Malme-3M > 100 µM | NCI-H23 > 100 µM | NCI-H460 > 100 µM | NCI-H522 > 100 µM | NCI/ADR-RES > 100 µM | OVCAR-3 > 100 µM | OVCAR-4 > 100 µM | OVCAR-5 > 100 µM | OVCAR-8 > 100 µM | PC-3 > 100 µM | RPMI-8226 > 100 µM | RXF 393 > 100 µM | SF-268 > 100 µM | SF-295 > 100 µM | SF-539 > 100 µM | SK-MEL-28 > 100 µM | SK-MEL-2 > 100 µM | SK-MEL-5 > 100 µM | SK-OV-3 > 100 µM | SNB-19 > 100 µM | SNB-75 > 100 µM | SR > 100 µM | SW-620 > 100 µM | T47D > 100 µM | TK-10 > 100 µM | U-251 > 100 µM | UACC-257 > 100 µM | UO-31 > 100 µM
> 100 µM: HCT-15

C[C@@H]1OC(=O)C[C@H]2CC(=O)N(CCC3CN(S(=O)(=O)C(F)(F)F)c4ccc(Cc5ccc6c(c5)C(CCN5C[C@H]7[C@@H](CC(=O)O[C@H]7C)CC5=O)CN6S(=O)(=O)C(F)(F)F)cc43)C[C@@H]21 (some centres undefined)
> 100 µM: HCT-15
inactive: 786-0 > 100 µM | A498 > 100 µM | A549 > 100 µM | ACHN > 100 µM | BT-549 > 100 µM | CAKI-1 > 100 µM | CCRF-CEM > 100 µM | COLO 205 > 100 µM | DU-145 > 100 µM | EKVX > 100 µM | HCC 2998 > 100 µM | HCT-116 > 100 µM | HOP-62 > 100 µM | HOP-92 > 100 µM | K562 > 100 µM | KM12 > 100 µM | LOX IMVI > 100 µM | M14 > 100 µM | MCF7 > 100 µM | MDA-MB-231 > 100 µM | MDA-MB-435 > 100 µM | MOLT-4 > 100 µM | Malme-3M > 100 µM | NCI-H226 > 100 µM | NCI-H23 > 100 µM | NCI-H460 > 100 µM | NCI/ADR-RES > 100 µM | OVCAR-3 > 100 µM | OVCAR-4 > 100 µM | OVCAR-5 > 100 µM | OVCAR-8 > 100 µM | PC-3 > 100 µM | RPMI-8226 > 100 µM | RXF 393 > 100 µM | SF-268 > 100 µM | SF-295 > 100 µM | SK-MEL-28 > 100 µM | SK-MEL-2 > 100 µM | SK-MEL-5 > 100 µM | SK-OV-3 > 100 µM | SNB-19 > 100 µM | SNB-75 > 100 µM | SW-620 > 100 µM | T47D > 100 µM | TK-10 > 100 µM | U-251 > 100 µM | UACC-257 > 100 µM | UACC-62 > 100 µM | UO-31 > 100 µM
active: SF-539 < 0.01 µM

Cc1ccc(S(=O)(=O)n2c3c(c4ccccc42)CCN2C[C@H]([C@H](C)Br)CC[C@@H]32)cc1
inactive: 786-0 > 100 µM | A498 > 100 µM | A549 > 100 µM | ACHN > 100 µM | CAKI-1 > 100 µM | CCRF-CEM 86.7 µM | COLO 205 > 100 µM | DU-145 > 100 µM | EKVX > 100 µM | HCC 2998 82.8 µM | HL-60 6.46 µM | HOP-62 > 100 µM | HOP-92 > 100 µM | HT-29 > 100 µM | IGROV-1 > 100 µM | K562 25.7 µM | KM12 > 100 µM | LOX IMVI > 100 µM | M14 > 100 µM | MCF7 91.8 µM | MDA-MB-231 > 100 µM | MDA-MB-435 32.1 µM | MDA-N > 100 µM | MOLT-4 67.1 µM | Malme-3M > 100 µM | NCI-H226 > 100 µM | NCI-H23 > 100 µM | NCI-H460 > 100 µM | NCI-H522 > 100 µM | NCI/ADR-RES > 100 µM | OVCAR-3 > 100 µM | OVCAR-4 > 100 µM | OVCAR-5 > 100 µM | OVCAR-8 > 100 µM | PC-3 > 100 µM | RPMI-8226 13.1 µM | RXF 393 > 100 µM | SF-268 > 100 µM | SF-295 > 100 µM | SF-539 > 100 µM | SK-MEL-28 > 100 µM | SK-MEL-2 > 100 µM | SK-MEL-5 29.2 µM | SK-OV-3 > 100 µM | SNB-19 > 100 µM | SNB-75 > 100 µM | SR 4.01 µM | SW-620 > 100 µM | T47D > 100 µM | TK-10 > 100 µM | U-251 > 100 µM | UACC-257 > 100 µM | UACC-62 > 100 µM | UO-31 > 100 µM
> 100 µM: HCT-15
